Laboratory results published in ChEMBL document CHEMBL1155585, “Cypellocarpins A-C, phenol glycosides esterified with oleuropeic acid, from Eucalyptus cypellocarpa” (J Nat Prod, 2000).

Legend:
Mus musculus [1] = species: Mus musculus; assay: Antitumor activity against (+/-)-(E)-4-methyl-2-[(E)-hydroxyimino]-6-methoxy-5-nitro-3-hexenamide/TPA-induced carcinogenesis in mouse assessed as reduction in number of tumor bearing mouse at 50 molar ratio/TPA after 10 weeks relative to control; format: functional; design: scale not given: the % may be the effect or the level left
[2] = Cytotoxicity against human Raji cells assessed as cell viability at 1000 molar ratio/TPA; format: cell-based; details: read-out: Activity
Mus musculus [3] = species: Mus musculus; assay: Antitumor activity against (+/-)-(E)-4-methyl-2-[(E)-hydroxyimino]-6-methoxy-5-nitro-3-hexenamide/TPA-induced carcinogenesis in mouse assessed as reduction in number of tumor bearing mouse at 50 molar ratio/TPA after 20 weeks relative to control; format: functional; design: scale not given: the % may be the effect or the level left

Compound | Activity (Mus musculus [1]) | viability at 1000 molar ratio/TPA [2] | Activity (Mus musculus [3])
Cc1c(O[C@@H]2O[C@H](CO)[C@@H](O)[C@H](O)[C@H]2O)c(C=O)c(O)c2c1OC(C)(C)C=C2 | 30% | 60% | 
Cc1cc(=O)c2c(O)cc(O[C@@H]3O[C@H](COC(=O)C4=CC[C@H](C(C)(C)O)CC4)[C@@H](O)[C@H](O)[C@H]3O)cc2o1 [CYPELLOCARPA C] | 30% | 70% | 
CC(C)(O)[C@H]1CC=C(C(=O)OC[C@H]2O[C@@H](Oc3cc(C(=O)O)cc(O)c3O)[C@H](O)[C@@H](O)[C@@H]2O)CC1 [CYPELLOCARPIN A] |  | 70% | 
CC1(O)CC(=O)c2c(O)cc(O[C@@H]3O[C@H](COC(=O)C4=CC[C@H](C(C)(C)O)CC4)[C@@H](O)[C@H](O)[C@H]3O)cc2O1 (stereo partly drawn) [CYPELLOCARPIN B] | 30% | 70% | 58%
